Data taken from patent publication US10144742B2 (Millennium Pharmaceuticals, Inc., priority 2014, dated 2018).
Read-outs that look alike come from different tables or passages of the source.

Assays:
hNAMPT protein = hNAMPT protein (Homo sapiens (Human), UniProt P43490); experiment: NAMPT enzyme assay (TR-FRET/HTRF, BodiPY ligand, anti 6His-Tb); format: binding; conditions: for IC50: read-out: IC50; for inhibition at 1 µM: read-out: Percent Inhibition
Summary of the method: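 Compound or DMSO was incubated for 1 h at room temperature, protected from light, with BodiPY ligand and hNAMPT labelled by terbium anti-6His antibody. The 520 nm to 486 nm emission ratio after 320 nm excitation gave inhibition versus vehicle, from which concentration-response curves yielded IC50.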

PC3 cells = experiment: PC3 growth inhibition (Cell-titer glo, 72 hours); format: cell-based; conditions: Homo sapiens, PC-3, PC3 cells, 72 hours, Cell-titer glo, read-out: Percent Inhibition (PC3 growth inhibition); for inhibition at 1 µM: compound concentration 1 μM; for inhibition at 1.667 µM: compound concentration 1.667 μM
Summary of the method: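 Compounds in AIM serum-free medium were applied for 72 h at 37 °C, 5% CO2 to PC3 cells plated overnight from RPMI1640 culture. Luminescence after 10 min CellTiter-Glo, normalised to DMSO, gave % viability at 1 μM or 1.667 μM, or GI50/LD50.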

[1] = NAMPT inhibition at compound concentration 1 μM
[2] = NAMPT inhibition, IC50 range class

Chain of hNAMPT protein (P43490 whole entry): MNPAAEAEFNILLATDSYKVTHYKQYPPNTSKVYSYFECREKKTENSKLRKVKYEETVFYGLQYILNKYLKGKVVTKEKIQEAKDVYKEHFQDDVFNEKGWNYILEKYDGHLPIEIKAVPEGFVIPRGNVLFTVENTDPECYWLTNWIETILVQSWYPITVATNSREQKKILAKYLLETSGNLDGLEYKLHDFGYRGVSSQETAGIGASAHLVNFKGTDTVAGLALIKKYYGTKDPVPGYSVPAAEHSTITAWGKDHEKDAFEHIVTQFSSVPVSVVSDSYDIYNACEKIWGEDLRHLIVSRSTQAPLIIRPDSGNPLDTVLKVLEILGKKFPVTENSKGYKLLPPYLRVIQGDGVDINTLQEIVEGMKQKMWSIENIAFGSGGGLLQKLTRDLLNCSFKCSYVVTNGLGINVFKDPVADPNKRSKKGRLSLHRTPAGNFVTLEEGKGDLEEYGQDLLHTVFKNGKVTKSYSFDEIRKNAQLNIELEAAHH

Row | SMILES | IC50 (hNAMPT protein; NAMPT IC50 range class) [nM] | inhibition at 1 µM (hNAMPT protein; compound concentration 1 μM) [%] | inhibition at 1 µM (PC3 cells) [%] | inhibition at 1.667 µM (PC3 cells) [%] | inhibition at 1 µM (hNAMPT protein; [1]) [%] | IC50 (hNAMPT protein; [2]) [nM]
1 | Cc1nc2ccc(C(=O)NCCCn3ccnc3)cc2nc1-c1ccccc1 [Compound I-158, N-[3-(1H-imidazol-1-yl)propyl]-2-methyl-3-phenylquinoxaline-6-carboxamide] | 1000 to 2000 | 42 | 0 |  |  | 
2 | O=C(NCCCc1ncc[nH]1)c1ccc2nc(OCc3ccc(Cl)cc3)c(-c3ccc(F)cc3)nc2c1 [Compound I-364, 2-[(4-chlorobenzyl)oxy]-3-(4-fluorophenyl)-N-[3-(1H-imidazol-2-yl)propyl]quinoxaline-6-carboxamide] | 100 to 500 | 73 |  | 4 |  | 
3 | COC1CN(c2nc3ccc(C(=O)NCCCn4ccnc4)cc3nc2-c2ccccc2)C1 [Compound I-59, N-[3-(1H-imidazol-1-yl)propyl]-2-(3-methoxyazetidin-1-yl)-3-phenylquinoxaline-6-carboxamide] | 1000 to 2000 | 49 | -6 |  |  | 
4 | CS(=O)(=O)CCOc1nc2ccc(C(=O)NCCCc3ncc[nH]3)cc2nc1-c1ccc(F)cc1 [Compound I-401, 3-(4-fluorophenyl)-N-[3-(1H-imidazol-2-yl)propyl]-2-[2-(methylsulfonyl)ethoxy]quinoxaline-6-carboxamide] |  |  |  | 99 | 69 | 100 to 500
5 | COc1cccc(-c2nc3cc(C(=O)NCCCc4ncc[nH]4)ccc3nc2OC(C)C)c1 [Compound I-511, N-[3-(1H-imidazol-2-yl)propyl]-2-isopropoxy-3-(3-methoxyphenyl)quinoxaline-6-carboxamide] |  |  |  | 2 | > 99 | < 100
6 | COc1cccc(-c2nc3cc(C(=O)NCCc4cccnc4)ccc3nc2N2CCC(N3CCOCC3)CC2)c1 [Compound I-291, 3-(3-Methoxyphenyl)-2-[4-(morpholin-4-yl)piperidin-1-yl]-N-[2-(pyridin-3-yl)ethyl]quinoxaline-6-carboxamide] | < 100 | 98 |  | 2 |  | 
7 | Cc1cc(C)n(-c2nc3ccc(C(=O)NCCCc4ncc[nH]4)cc3nc2-c2ccc(F)cc2)n1 [Compound I-428, 2-(3,5-dimethyl-1H-pyrazol-1-yl)-3-(4-fluorophenyl)-N-[3-(1H-imidazol-2-yl)propyl]quinoxaline-6-carboxamide] |  |  |  | 2 | 71 | 100 to 500
8 | O=C(NCCCc1ncc[nH]1)c1ccc2nc(N3CCC(N4CCOCC4)CC3)c(-c3cccs3)nc2c1 [Compound I-44, N-[3-(1H-imidazol-2-yl)propyl]-2-[4-(morpholin-4-yl)piperidin-1-yl]-3-(2-thienyl)quinoxaline-6-carboxamide] | < 100 | > 99 |  | 33 |  | 
9 | O=C(NCCCc1ncc[nH]1)c1ccc2nc(-c3ccc(F)cc3)c(-c3cccc(Cl)c3)nc2c1 [Compound I-463, 3-(3-chlorophenyl)-2-(4-fluorophenyl)-N-[3-(1H-imidazol-2-yl)propyl]quinoxaline-6-carboxamide] |  |  |  | 3 | 97 | < 100
10 | O=C(NCCCc1ncc[nH]1)c1ccc2nc(-c3ccc(F)cc3)c(-c3cccc(OC(F)(F)F)c3)nc2c1 [Compound I-350, 2-(4-fluorophenyl)-N-[3-(1H-imidazol-2-yl)propyl]-3-[3-(trifluoromethoxy)phenyl]quinoxaline-6-carboxamide] | 100 to 500 | 86 |  | 2 |  | 
11 | O=C(NCCCc1ncc[nH]1)c1ccc2nc(-n3ccnn3)c(-c3ccc(F)cc3)nc2c1 [Compound I-374, 3-(4-fluorophenyl)-N-[3-(1H-imidazol-2-yl)propyl]-2-(1H-1,2,3-triazol-1-yl)quinoxaline-6-carboxamide] | 100 to 500 | 75 |  | 3 |  | 
